“Also recorded” adds a separate entry of the source.
Assays:
SMAD3 phosphorylation = assay: Murine bleomycin model: SMAD3 phosphorylation; assay type: in vivo, mouse; conditions: bleomycin mice
Description: Mice (C57BL/6) were divided into healthy (n=15), vehicle-treated (n=15), and test article-treated (n=15 per dose) groups. Mice in the vehicle and test article-treated groups were administered 3 U/kg of bleomycin (Teva Pharmaceuticals; North Wales, PA) via oropharyngeal aspiration while under anesthesia on day 0. Healthy animals were administered water in a similar fashion. Starting on day 7, mice in the control group were administered PBS vehicle, 130 uL, by oral gavage, BID for 14 days. Also starting on day 7, mice in the test group were administered compound 5 in PBS by oral gavage, BID for 14 days, at relative dosages of 1x, 2.5x and 5x. […] From day 14 through day 21, 9 of the 15 mice were administered ^2H2O for labeling. All mice were sacrificed on day 21 and tissues were collected. Samples were prepared for analysis either directly from lung tissue, or by bronchoalveolar lavage, which washes out the bronchiolar and alveolar space with saline to produce a bronchoalveolar lavage fluid (BALF) in which 80-90% of cells are alveolar macrophages.
FIG. 4C is a graph showing that compared to the healthy mice, lung tissue in the vehicle-treated mice experienced a substantial increase in SMAD3 phosphorylation, which is a measure of TGF-β signaling-related kinase activity. […]

[1] = tested on: patients with idiopathic pulmonary fibrosis (IPF); assay: Phase 2a trial in IPF: FVC, QLF, biomarkers; assay type: in vivo, human; conditions: for proportion of patients with ≥10% decline in FVCpp: 12 weeks
Description: The exploratory endpoints of the trial measured changes in forced vital capacity (FVC), HRCT-based Quantitative Lung Fibrosis score (QLF), and selected biomarkers over 3 months of treatment.

lung Col1a1 expression = assay: Precision cut lung slices from human IPF explants, 3 days; assay type: cell-based; conditions: 3G9 ≥400 ng/mL, compound 5 179 nM, ALK5 inhibitor 1 µM
Description: Explanted lung tissue was obtained from human IPF subjects and inflated with agarose as described in the preceding examples. Biopsy cores were obtained from the agarose-inflated lung tissue. The biopsy cores were subjected to precision slicing to obtain several hundred µm thick. Individual slices were distributed in a multiwell culture plate and cultured for 3 days under control (DMSO) and test compound conditions. The viability of the slices over the course of culturing was confirmed by WST-1 assay of mitochondrial activity.

[2] = SAD and MAD first-in-human studies, plasma LC-MS/MS; assay type: in vivo; conditions: healthy subjects
Description: Healthy human subjects (N=85) were selected for single ascending dose (SAD) and multiple ascending dose (MAD) first-in-human studies. A solution for oral administration was prepared, containing 10 mg/mL of compound 5 in a 50:50 mixture of ORA-SWEET® SF (PERRIGO®, Allegan, Michigan) and sterile water for irrigation. Sufficient solution was administered orally to the subjects to provide between 15 mg/dose and 75 mg/dose of compound 5 in the SAD study and between 10 mg/dose and 40 mg/dose of compound 5 in the MAD study. Concentrations of compound 5 were measured in the subjects by obtaining a sample of plasma from each subject at desired intervals, and subjecting the plasma to liquid chromatography-mass spectrometry-mass spectrometry (LC-MS/MS), with quantification using a calibration curve determined from a range of solutions at standardized concentrations. The lower limit of quantitation (LLOQ) of the assay was 1 ng/mL and the calibration curve range was 1 to 500 ng/mL.

αvβ6 = αvβ6 (Homo sapiens (Human), UniProt P06756+P18564); assay: [18F]FP-R01-MG-F2 PET/CT target engagement in participants with IPF; assay type: in vivo
Description: The aim of this Example is to assess target engagement of the disclosed compounds to αvβ6 in human participants with IPF using [^18F]FP-R01-MG-F2 PET/computerized tomography (CT) imaging.
This Example was conducted as an open-label, single-dose (60 mg, 120 mg, 240 mg or 320 mg) clinical trial evaluating αvβ6 receptor occupancy in the lungs, safety, and pharmacokinetics of Compound #5 in subjects with IPF. To date, 4 participants have completed the study. Each of these 4 participants was undergoing a pre-existing course of therapy using one of the SoC (Standard of Care) compounds, nintedanib. These participants continued their pre-existing nintedanib therapy throughout this study. Knottin tracer uptake kinetics were compared pre- and post-dose of the disclosed compound, as measured by standardized uptake values (SUVs) and parameters estimated from kinetic modeling in regions-of-interest on dynamic [^18F]FP-R01-MG-F2 PET/CT scans. […] Receptor occupancy was estimated from the output of the two-compartment model (VT, the […]) using standard equations and fitting algorithms, and corrections for VND (non-displaceable tracer binding). For example, in FIG. 10, the data points, shown as circles, are modeled by the following formula: […]
Five subjects with IPF were enrolled: Subject A received a single dose of 60 mg of the disclosed compound followed by a post-dose scan. Subject B received two doses of the disclosed compound separated by two weeks, 120 mg and 240 mg, each followed by a post-dose scan. Subject C received two doses of the disclosed compound separated by two weeks, 240 mg and 320 mg, each followed by a post-dose scan. Subject D received a single dose of 320 mg of the disclosed compound followed by a post-dose scan.

Chain of αvβ6 (P06756 31-889): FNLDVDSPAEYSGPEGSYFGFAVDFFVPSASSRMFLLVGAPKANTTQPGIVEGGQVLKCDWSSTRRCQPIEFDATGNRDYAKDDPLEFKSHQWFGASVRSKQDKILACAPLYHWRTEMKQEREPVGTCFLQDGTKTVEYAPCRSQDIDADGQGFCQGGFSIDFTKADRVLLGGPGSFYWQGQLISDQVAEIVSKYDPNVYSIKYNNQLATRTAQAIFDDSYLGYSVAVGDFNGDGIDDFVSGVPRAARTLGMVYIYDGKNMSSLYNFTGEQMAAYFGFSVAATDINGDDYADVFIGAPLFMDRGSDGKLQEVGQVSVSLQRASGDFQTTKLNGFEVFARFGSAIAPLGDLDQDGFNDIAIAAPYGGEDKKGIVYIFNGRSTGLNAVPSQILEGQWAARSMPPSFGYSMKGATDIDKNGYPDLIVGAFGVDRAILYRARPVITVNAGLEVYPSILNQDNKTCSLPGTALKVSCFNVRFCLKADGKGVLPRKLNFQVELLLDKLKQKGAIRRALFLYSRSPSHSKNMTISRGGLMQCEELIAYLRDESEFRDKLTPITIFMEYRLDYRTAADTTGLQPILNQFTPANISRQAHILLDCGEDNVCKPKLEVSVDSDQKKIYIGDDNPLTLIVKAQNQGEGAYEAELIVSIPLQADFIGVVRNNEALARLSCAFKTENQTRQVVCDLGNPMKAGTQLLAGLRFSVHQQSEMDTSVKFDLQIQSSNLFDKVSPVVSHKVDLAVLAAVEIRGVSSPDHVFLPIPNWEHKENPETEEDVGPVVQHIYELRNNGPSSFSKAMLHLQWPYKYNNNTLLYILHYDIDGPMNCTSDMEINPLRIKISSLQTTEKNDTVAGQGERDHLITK
Chain of αvβ6 (P06756 890-1048 partner): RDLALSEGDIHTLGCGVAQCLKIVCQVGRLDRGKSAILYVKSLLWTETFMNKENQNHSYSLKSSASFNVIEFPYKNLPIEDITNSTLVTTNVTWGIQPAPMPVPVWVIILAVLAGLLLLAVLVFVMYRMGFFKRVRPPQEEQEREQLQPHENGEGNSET
Chain of αvβ6 (P18564 22-788): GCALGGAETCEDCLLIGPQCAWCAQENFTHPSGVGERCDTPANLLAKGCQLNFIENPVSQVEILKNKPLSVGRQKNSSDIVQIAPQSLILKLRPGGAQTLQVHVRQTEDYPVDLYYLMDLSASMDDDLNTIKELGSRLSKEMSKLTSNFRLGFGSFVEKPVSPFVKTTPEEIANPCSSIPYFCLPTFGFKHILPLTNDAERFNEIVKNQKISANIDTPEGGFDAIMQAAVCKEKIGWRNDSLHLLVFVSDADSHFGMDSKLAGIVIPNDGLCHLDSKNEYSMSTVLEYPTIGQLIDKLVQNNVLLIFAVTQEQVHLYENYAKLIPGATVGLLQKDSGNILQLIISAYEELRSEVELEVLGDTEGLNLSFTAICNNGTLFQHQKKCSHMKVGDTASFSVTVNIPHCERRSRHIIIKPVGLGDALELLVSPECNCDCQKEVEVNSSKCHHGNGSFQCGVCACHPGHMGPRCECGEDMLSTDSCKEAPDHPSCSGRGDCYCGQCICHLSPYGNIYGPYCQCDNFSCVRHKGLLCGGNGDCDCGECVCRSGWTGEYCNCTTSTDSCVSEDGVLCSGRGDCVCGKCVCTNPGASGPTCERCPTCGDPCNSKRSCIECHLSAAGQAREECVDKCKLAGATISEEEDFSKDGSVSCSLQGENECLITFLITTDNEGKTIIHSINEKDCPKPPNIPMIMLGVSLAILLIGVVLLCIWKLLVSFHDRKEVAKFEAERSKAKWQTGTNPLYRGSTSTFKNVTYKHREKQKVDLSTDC

COCCN(CCCCc1ccc2c(n1)NCCC2)CC[C@H](Nc1ncnc2ccccc12)C(=O)O [Compound 5, (S)-4-((2-methoxyethyl)(4-(5,6,7,8-tetrahydro-1,8-naphthyridin-2-yl)butyl)amino)-2-(quinazolin-4-ylamino)butanoic acid]
pSMAD3 levels in the lung, % of the untreated levels (SMAD3 phosphorylation): approximately 50%
SMAD3 phosphorylation in lung tissue vs vehicle (SMAD3 phosphorylation; 1x, 2.5x, 5x dose PO BID 14 days from day 7): substantial, statistically significant dose-dependent reductions
LS Mean change from baseline in FVC at week 12, not on SoC subgroup ([1]; 40 mg (N=5)): -43.1 mL
Mean Percent Change in QLF extent from baseline to Week 12 ([1]; 40 mg (N=15)): 3.15%
LS Mean change from baseline in FVC at week 12, on SoC subgroup ([1]; 40 mg (N=17)): -58.3 mL
change in FVC from baseline to Week 12 ([1]; 40 mg dose group): -46.1 mL
reduction in FVC decline relative to placebo ([1]; 40 mg dose group): 38%
proportion of patients with ≥10% decline in FVCpp ([1]; 40 mg group): 18.2%
LS Mean change from baseline in FVC at week 12, not on SoC subgroup ([1]; 80 mg (N=4)): +138.1 mL
Mean Percent Change in QLF extent from baseline to Week 12 ([1]; 80 mg (N=18)): 0.70%
LS Mean change from baseline in FVC at week 12, on SoC subgroup ([1]; 80 mg (N=19)): -11.9 mL
change in FVC from baseline to Week 12 ([1]; 80 mg dose group): +24.6 mL
proportion of patients with > 2% increase in QLF at 12 weeks ([1]; 80 mg group): 11%
proportion of patients with ≥10% decline in FVCpp ([1]; 80 mg group): 8.7%
Mean Percent Change in QLF extent from baseline to Week 12 ([1]; 160 mg (N=14)): 0.00%
LS Mean change from baseline in FVC at week 12, not on SoC subgroup ([1]; 160 mg (n=3)): +25.8 mL
LS Mean change from baseline in FVC at week 12, on SoC subgroup ([1]; 160 mg (n=19)): -47.5 mL
change in FVC from baseline to Week 12 ([1]; 160 mg dose group): -25.1 mL
reduction in FVC decline relative to placebo ([1]; 160 mg dose group): 66%
proportion of patients with a decrease in QLF (>2% change) at 12 weeks ([1]; 160 mg group): 26.7%
proportion of patients with stable QLF (-2 to 2% change) at 12 weeks ([1]; 160 mg group): 46.6%
proportion of patients with ≥10% decline in FVCpp ([1]; 160 mg group): 4.5%
serum PRO-C3 (type III collagen synthesis) change from baseline vs placebo ([1]; not significant): decreased; also recorded: reduced
serum PRO-C6 (type VI collagen synthesis) change from baseline vs placebo ([1]; not significant): decreased; also recorded: reduced
change in FVC from baseline to Week 12 ([1]; pooled Compound 5 groups): -15.1 mL
lung Col1a1 expression vs DMSO control (lung Col1a1 expression): substantial, statistically significant
oral bioavailability and pharmacokinetics [2]: good oral bioavailability and pharmacokinetics
decrease in volume of distribution of the knottin radiotracer in the lungs (αvβ6; 60 mg dose): approximately 50%
decrease in volume of distribution of the knottin radiotracer in the lungs (αvβ6; 240 and 320 mg doses): greater than 95%
%DeltaVt (αvβ6; Subject A00, 60 mg single dose): 52.23%
Vs (Vt corrected for non-displaceable binding, VND=0.66) (αvβ6; Subject A00, 60 mg single dose): 1.18
Vt (post-dose) (αvβ6; Subject A00, 60 mg single dose): 1.84
%DeltaVt (αvβ6; Subject B120, 120 mg): 58.76%
Vs (Vt corrected for non-displaceable binding, VND=0.66) (αvβ6; Subject B120, 120 mg): 0.99
Vt (post-dose) (αvβ6; Subject B120, 120 mg): 1.65
%DeltaVt (αvβ6; Subject B240, 240 mg): 97.56%
Vs (Vt corrected for non-displaceable binding, VND=0.66) (αvβ6; Subject B240, 240 mg): 0.06
Vt (post-dose) (αvβ6; Subject B240, 240 mg): 0.72
%DeltaVt (αvβ6; Subject C240, 240 mg): 70.91%
Vs (Vt corrected for non-displaceable binding, VND=0.66) (αvβ6; Subject C240, 240 mg): 0.32
Vt (post-dose) (αvβ6; Subject C240, 240 mg): 0.98
%DeltaVt (αvβ6; Subject C320, 320 mg): 82.73%
Vs (Vt corrected for non-displaceable binding, VND=0.66) (αvβ6; Subject C320, 320 mg): 0.19
Vt (post-dose) (αvβ6; Subject C320, 320 mg): 0.85
%DeltaVt (αvβ6; Subject D320, 320 mg): 93.57%
Vs (Vt corrected for non-displaceable binding, VND=0.66) (αvβ6; Subject D320, 320 mg): 0.09
Vt (post-dose) (αvβ6; Subject D320, 320 mg): 0.75
αvβ6 receptor occupancy (αvβ6; lungs of IPF participants): about 100%
concentration at which the exposure response saturates (αvβ6; measured drug exposure at 4 hours): about 100 nM
